# Assay results reported in US9012500B2, “PKC-ε activator” (Nishizaki Bioinformation Research Institute, priority 2010, dated 2015).
# Columns and labels:
# [1] = test system: senescence-accelerated mouse (SAMP8); assay: Water maze test in senescence-accelerated mouse (SAMP8); type: in vivo; settings: 8 days
# Experimental: Using senescence-accelerated mouse (accelerated-senescence-prone mice 8: SAMP8) and normal senescence mouse (accelerated-senescence-resistant mice 1: SAMR1) as a control thereof, a water maze test was performed. Male SAMP8 and SAMR1 (22- to 25-week-old) were available from Takeda Pharmaceutical Company Limited (Osaka, Japan). The mice were individually raised in a cage at 23±1° C., 12 hr light/dark cycle (lighted at 7:00 am), and allowed to freely ingest feed (solid feed) and water.
# Racemate DCP-LA and 4 optical isomers DCP-LA (α,α-, α,β-, β,α-, β,β-DCP-LA), each dissolved in 0.1 ml polyethylene glycol (PEG), or 0.1 ml PEG were orally administered once a day from the day when the water maze test was started. For each group, the water maze test was performed twice a day for 8 days, and the time required to reach a platform (acquisition latency) was measured.
# For the water maze test, a circular plastic water tank (diameter 90 cm, depth 36 cm) was used. The inside of the water tank was completely painted in black, and dark water with India ink was filled up to 20 cm from the bottom (22° C.). A platform (diameter 11 cm) painted in black was placed in water such that it was 1 cm below the water surface. The water tank was placed in a test room, and several marks seen by the mice from the water tank were put thereon. During the test, the position of the marks was not changed. A platform was placed a predetermined position from the equal distance from the center and the end of the water tank, namely, center of one quadrant. At one of the randomly selected 5 points, the mouse was released facing the wall of the water tank, and the time necessary for evacuating on the platform (acquisition latency) was measured. When smoothly evacuated, the mouse was left on the platform for 10 seconds. From the day of water maze test and during the test, polyethylene glycol (PEG) alone or racemate DCP-LA (1 mg/kg), α,α-DCP-LA (0.25 mg/kg), α,β-DCP-LA (0.25 mg/kg), β,α-DCP-LA (0.25 mg/kg), or β,β-DCP-LA (0.25 mg/kg), each dissolved in PEG, was orally administered every day. The water maze test was performed twice a day, and the second test was started at 2 min from the first test. The test was continuously performed for 8 days, and the average value (±SEM) of acquisition latency of continuous 2 days until the mouse reached the platform was calculated (each n=5).
# [2] = test system: serotonin release from the hypothalamus; assay: Serotonin release from rat hypothalamus sections (HPLC); type: cell-based
# [3] = test system: glutamic acid release from the hippocampus; assay: Glutamic acid release from rat hippocampus sections (HPLC); type: cell-based
# [4] = test system: dopamine release from the striatum; assay: Dopamine release from rat striatum sections (HPLC); type: cell-based
# [5] = target: α7 nicotinic acetylcholine receptor (Homo sapiens, UniProt P36544); settings: α7 nicotinic acetylcholine receptor at the glutamatergic presynaptic terminal as target, non-patent document 5; cited from earlier work
# nerve cell = settings: patent document 2; cited from earlier work
# hippocampus nerve cells = settings: non-patent document 3; cited from earlier work
# [6] = test system: senescence-accelerated mouse; settings: non-patent document 2; cited from earlier work
# [7] = test system: amyloid β peptide- or scopolamine-treated rat; settings: non-patent document 4; cited from earlier work
# PKC-ε = target: T1, PKC-ε (Homo sapiens, UniProt Q02156); settings: non-patent document 1; cited from earlier work
# T1 sequence (Q02156 1-737): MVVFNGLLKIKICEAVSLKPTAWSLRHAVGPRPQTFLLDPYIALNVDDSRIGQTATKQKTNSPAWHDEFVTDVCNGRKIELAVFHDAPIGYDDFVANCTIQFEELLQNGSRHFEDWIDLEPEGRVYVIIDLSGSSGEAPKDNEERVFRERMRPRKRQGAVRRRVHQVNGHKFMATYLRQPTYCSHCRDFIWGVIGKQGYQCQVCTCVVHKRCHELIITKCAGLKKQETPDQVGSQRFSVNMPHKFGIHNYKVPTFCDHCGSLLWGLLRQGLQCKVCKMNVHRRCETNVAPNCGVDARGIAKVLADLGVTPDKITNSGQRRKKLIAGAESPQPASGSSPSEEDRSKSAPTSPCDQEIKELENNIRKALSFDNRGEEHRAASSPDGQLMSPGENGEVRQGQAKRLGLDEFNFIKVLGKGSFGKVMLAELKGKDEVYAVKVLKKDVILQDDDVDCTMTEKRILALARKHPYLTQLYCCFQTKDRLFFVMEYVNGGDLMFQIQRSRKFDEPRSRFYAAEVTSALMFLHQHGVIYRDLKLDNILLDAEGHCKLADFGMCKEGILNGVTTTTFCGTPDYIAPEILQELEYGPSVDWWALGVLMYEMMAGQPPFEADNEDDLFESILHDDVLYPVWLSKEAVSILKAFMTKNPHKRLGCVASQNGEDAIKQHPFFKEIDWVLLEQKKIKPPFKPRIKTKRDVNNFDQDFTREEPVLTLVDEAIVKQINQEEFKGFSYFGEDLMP
# [8] = SAMP8, 0.25 mg/kg orally once a day
# Chain of α7 nicotinic acetylcholine receptor (P36544 23-502): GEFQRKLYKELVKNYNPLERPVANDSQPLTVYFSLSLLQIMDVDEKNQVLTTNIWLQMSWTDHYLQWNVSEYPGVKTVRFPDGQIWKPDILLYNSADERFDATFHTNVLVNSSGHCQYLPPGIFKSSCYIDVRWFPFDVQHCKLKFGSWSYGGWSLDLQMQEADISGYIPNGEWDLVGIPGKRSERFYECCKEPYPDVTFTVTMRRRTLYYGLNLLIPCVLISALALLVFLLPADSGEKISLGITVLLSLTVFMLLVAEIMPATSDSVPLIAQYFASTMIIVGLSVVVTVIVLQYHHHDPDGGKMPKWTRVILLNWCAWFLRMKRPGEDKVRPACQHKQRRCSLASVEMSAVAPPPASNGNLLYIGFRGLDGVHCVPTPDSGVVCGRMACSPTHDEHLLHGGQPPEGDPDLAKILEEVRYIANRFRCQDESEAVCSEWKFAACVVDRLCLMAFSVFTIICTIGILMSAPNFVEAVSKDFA
smiles,measurement,setting,value
"CCCCC[C@H]1C[C@H]1C[C@H]1C[C@@H]1CCCCCCCC(=O)O [β,α-DCP-LA, 8-[(1S,2R)-2-{(1S,2S)-2-pentylcyclopropylmethyl}-cyclopropyl]octanoic acid]",acquisition latency as compared to the PEG administration group,[1]; [8],shortened acquisition latency
"CCCCC[C@H]1C[C@H]1C[C@@H]1C[C@H]1CCCCCCCC(=O)O [β,β-DCP-LA, 8-[(1R,2S)-2-{(1S,2S)-2-pentylcyclopropylmethyl}-cyclopropyl]octanoic acid]",acquisition latency as compared to the PEG administration group,[1]; [8],shortened acquisition latency
"CN1CCCC1c1cccnc1 (centres unmarked) [nicotine, reference compound]","serotonin release, substance alone vs non-treated group",[2],did not show a remarkable difference
same,"glutamic acid release, substance alone vs non-treated group",[3],did not show a remarkable difference
same,"dopamine release, substance alone vs non-treated group",[4],did not show a remarkable difference
"CCCCCC1CC1CC1CC1CCCCCCCC(=O)O (racemic) [racemate DCP-LA, 8-(2-(2-pentyl-cyclopropylmethyl)-cyclopropyl)-octanoic acid]",acquisition latency as compared to the PEG administration group,"[1]; SAMP8, 1 mg/kg orally once a day",shortened acquisition latency
same,hippocampus synaptic transmission,[5],promotes hippocampus synaptic transmission
same,nerve cell death induced by oxidative stress,nerve cell,suppress nerve cell death
same,release of γ aminobutyric acid from hippocampus nerve cells,hippocampus nerve cells,increases release of γ aminobutyric acid
same,cognitive dysfunction of senescence-accelerated mouse,[6],improves cognitive dysfunction
same,cognitive dysfunction of amyloid β peptide- or scopolamine-treated rat,[7],improves cognitive dysfunction
same,PKC-ε activation,PKC-ε,selectively and directly activates PKC-ε
"CCCCC[C@@H]1C[C@@H]1C[C@H]1C[C@@H]1CCCCCCCC(=O)O [α,α-DCP-LA, 8-[(1S,2R)-2-{(1R,2R)-2-pentylcyclopropylmethyl}-cyclopropyl]octanoic acid]",acquisition latency as compared to the PEG administration group,[1]; [8],shortened acquisition latency
same,acquisition latency as compared to the racemate DCP-LA (1 mg/kg) administration group,[1]; [8],significantly shortened acquisition latency
"CN(C)CCCn1cc(C2=C(c3c[nH]c4ccccc34)C(=O)NC2=O)c2ccccc21 [GF109203X, reference compound]","effect of inhibitor on α,β-DCP-LA enhancement of nicotine-caused serotonin release","[2]; inhibitor 100 nM, FIG. 15",inhibited
same,"effect of inhibitor on α,β-DCP-LA enhancement of nicotine-caused glutamic acid release","[3]; inhibitor 100 nM, FIG. 9",inhibited
same,"effect of inhibitor on α,β-DCP-LA enhancement of nicotine-caused dopamine release","[4]; inhibitor 100 nM, FIG. 12",inhibited
